Where two headings read alike, the source gives them in different places.
Test system: cell lines from the Cancer Cell Line Encyclopedia (CCLE)
Assay: High-throughput cell viability assay, CCLE cell line panel (n = 356)
Assay type: cell-based, human
Details: Homo sapiens
Description: Cell lines were partitioned into sensitive and insensitive groups based on compound potency (IC50). […] All other cell lines were obtained from ATCC (American Type Culture Collection), DSMZ (Deutsche Sammlung von Mikroorganismen und Zellkulturen), and HSRRB (Health Science Research Resources Bank) and cultured in RPMI or Dulbecco's modified Eagle's medium plus 10% FBS (Invitrogen, Carlsbad, CA) at 37°C, 5% CO2.

Structure (SMILES): COc1cc2c(cc1OC(C)C)[C@H](c1ccc(Cl)cc1)N(c1ccc(N(C)C[C@H]3CC[C@H](N4CCNC(=O)C4)CC3)cc1)C(=O)C2 [NVP-CFC218]
- IC50 (A 172, read-out: NVP- CFC218 IC50 (µM), cell line A172, central_nervous_system, TP53 WT): > 8 µM
- IC50 (A204, A-204, TP53 WT): 2.18 µM
- IC50 (A2780, A2780, TP53 WT): 2.24 µM
- IC50 (A-375, A-375, TP53 WT): 2.65 µM
- IC50 (ACHN, TP53 WT): 2.03 µM
- IC50 (AMO1, AMO-1, TP53 WT): 2.01 µM
- IC50 (AN3-CA, AN3 CA, TP53 MUT): > 8 µM
- IC50 (ASPC1, AsPC-1, TP53 MUT): > 8 µM
- IC50 (AU565, AU565, TP53 MUT): > 8 µM
- IC50 (BCPAP, B-CPAP, TP53 MUT): > 8 µM
- IC50 (BDCM, TP53 WT): 0.7 µM
- IC50 (BEN, TP53 MUT): > 8 µM
- IC50 (BFTC-905, BFTC-905, TP53 MUT): > 8 µM
- IC50 (BFTC-909, BFTC-909, TP53 MUT): > 8 µM
- IC50 (BHY, TP53 MUT): > 8 µM
- IC50 (BICR 6, TP53 MUT): > 8 µM
- IC50 (BL-41, BL-41, TP53 MUT): > 8 µM
- IC50 (BL-70, TP53 MUT): > 8 µM
- IC50 (BT-20, BT-20, TP53 MUT): > 8 µM
- IC50 (BT-474, BT-474, TP53 MUT): > 8 µM
- IC50 (BT-549, BT-549, TP53 MUT): > 8 µM
- IC50 (BXPC-3, BxPC-3, TP53 MUT): > 8 µM
- IC50 (CAKI-2, Caki-2, TP53 WT): 3.63 µM
- IC50 (CAL-12T, TP53 MUT): > 8 µM
- IC50 (CAL-78, TP53 MUT): > 8 µM
- IC50 (CAL-85-1, read-out: NVP- CFC218 IC50 (µM), cell line CAL-85-1, breast, TP53 MUT): > 8 µM
- IC50 (CAMA-1, read-out: NVP- CFC218 IC50 (µM), cell line CAMA-1, breast, TP53 MUT): > 8 µM
- IC50 (CAPAN-1, Capan-1, TP53 MUT): > 8 µM
- IC50 (CAS-1, TP53 MUT): > 8 µM
- IC50 (CFPAC-1, CFPAC-1, TP53 MUT): > 8 µM
- IC50 (CHL-1, CHL-1, TP53 MUT): > 8 µM
- IC50 (CHP-212, CHP-212, TP53 WT): 1.36 µM
- IC50 (CMK-11-5, CMK-11-5, TP53 MUT): > 8 µM
- IC50 (COLO 205, COLO 205, TP53 MUT): > 8 µM
- IC50 (COLO 792, TP53 WT): > 8 µM
- IC50 (COLO-679, COLO-679, TP53 WT): 0.91 µM
- IC50 (COLO-741, COLO 741, TP53 MUT): > 8 µM
- IC50 (COR-L23, COR-L23, TP53 WT): > 8 µM
- IC50 (COV318, COV318, TP53 MUT): > 8 µM
- IC50 (COV362, COV362, TP53 MUT): > 8 µM
- IC50 (COV434, COV434, TP53 WT): 5.89 µM
- IC50 (COV504, read-out: NVP- CFC218 IC50 (µM), cell line COV504, ovary, TP53 MUT): > 8 µM
- IC50 (COV644, TP53 WT): > 8 µM
- IC50 (Calu-3, Calu-3, TP53 MUT): > 8 µM
- IC50 (Calu-6, Calu-6, TP53 MUT): > 8 µM
- IC50 (Caov-3, Caov-3, TP53 MUT): > 8 µM
- IC50 (Capan-2, read-out: NVP- CFC218 IC50 (µM), cell line Capan-2, pancreas, TP53 WT): > 8 µM
- IC50 (ChaGo-K-1, ChaGo-K-1, TP53 MUT): > 8 µM
- IC50 (DB, TP53 MUT): > 8 µM
- IC50 (DBTRG-05MG, TP53 WT): 4 µM
- IC50 (DEL, TP53 MUT): > 8 µM
- IC50 (DK-MG, TP53 WT): 2.32 µM
- IC50 (DMS-53, DMS 53, TP53 MUT): > 8 µM
- IC50 (DMS-114, DMS 114, TP53 MUT): > 8 µM
- IC50 (DOHH-2, DOHH-2, TP53 WT): 1.18 µM
- IC50 (DU-145, DU 145, TP53 MUT): > 8 µM
- IC50 (Daoy, TP53 MUT): > 8 µM
- IC50 (Detroit 562, Detroit 562, TP53 MUT): > 8 µM
- IC50 (EB2, TP53 MUT): > 8 µM
- IC50 (EBC-1, EBC-1, TP53 MUT): > 8 µM
- IC50 (EFE-184, EFE-184, TP53 MUT): > 8 µM
- IC50 (EFM-19, EFM-19, TP53 MUT): > 8 µM
- IC50 (EFO-21, EFO-21, TP53 MUT): > 8 µM
- IC50 (EM-2, TP53 MUT): > 8 µM
- IC50 (ESS-1, read-out: NVP- CFC218 IC50 (µM), cell line ESS-1, endometrium, TP53 MUT): > 8 µM
- IC50 (FU-OV-1, TP53 MUT): > 8 µM
- IC50 (FaDu, TP53 MUT): > 8 µM
- IC50 (Fu97, FU97, TP53 MUT): > 8 µM
- IC50 (G-361, G-361, TP53 WT): 3.16 µM
- IC50 (G-401, G-401, TP53 WT): 1.6 µM
- IC50 (G-402, G-402, TP53 WT): 2.31 µM
- IC50 (GCIY, TP53 MUT): > 8 µM
- IC50 (GI-1, TP53 MUT): > 8 µM
- IC50 (GMS-10, GMS-10, TP53 MUT): > 8 µM
- IC50 (GP2d, TP53 WT): 3.45 µM
- IC50 (Granta-519, GRANTA-519, TP53 WT): 3.38 µM
- IC50 (H4, TP53 WT): 2.84 µM
- IC50 (HARA, TP53 MUT): > 8 µM
- IC50 (HCC15, HCC-15, TP53 MUT): > 8 µM
- IC50 (HCC70, HCC70, TP53 MUT): > 8 µM
- IC50 (HCC78, HCC-78, TP53 MUT): > 8 µM
- IC50 (HCC1500, HCC1500, TP53 WT): 4.89 µM
- IC50 (HCC1806, HCC1806, TP53 MUT): > 8 µM
- IC50 (HCC1954, HCC1954, TP53 MUT): > 8 µM
- IC50 (HCC4006, HCC4006, TP53 MUT): > 8 µM
